± gives the expanded uncertainty stated by the source.
Key:
[1] = Liquid; for viscosity: 100 kPa, Capillary tube (Ostwald / Ubbelohde) method; for mass density: 101.33 kPa, Pycnometric method
[2] = xn = mol fraction of the nth substance listed; settings: 303.15 K, 100 kPa, Liquid; for viscosity: Capillary tube (Ostwald / Ubbelohde) method; for excess molar volume: Direct dilatometry; for speed of sound: Frequency=3 MHz, Sing-around technique in a fixed-path interferometer; for mass density: Pycnometric method

## Clc1ccc(Cl)c(Cl)c1 [1,2,4-trichlorobenzene]
[1]; 303.15 K
  viscosity: 1.611 ± 0.015 mPa·s
  mass density: 1442.12 ± 14 kg/m3

## Clc1ccccc1Cl [1,2-dichlorobenzene]
[1]; 303.15 K
  viscosity: 1.301 ± 0.014 mPa·s
  mass density: 1299.2 ± 13 kg/m3

## Clc1cccc(Cl)c1 [1,3-dichlorobenzene]
[1]; 303.15 K
  viscosity: 1.023 ± 0.013 mPa·s
  mass density: 1277.16 ± 13 kg/m3

## Cc1ccccc1Cl [2-chlorotoluene]
[1]; 303.15 K
  viscosity: 0.884 ± 0.012 mPa·s
  mass density: 1072.82 ± 11 kg/m3

## Cc1ccccc1[N+](=O)[O-] [2-nitrotoluene]
[1]; 303.15 K
  viscosity: 1.908 ± 0.017 mPa·s
  mass density: 1153.24 ± 12 kg/m3

## Cc1cccc(Cl)c1 [3-chlorotoluene]
[1]; 293.15 K
  mass density: 1072.15 ± 11 kg/m3
[1]; 303.15 K
  viscosity: 0.782 ± 0.012 mPa·s

## Cc1cccc([N+](=O)[O-])c1 [3-nitrotoluene]
[1]; 303.15 K
  viscosity: 1.775 ± 0.016 mPa·s
  mass density: 1147.67 ± 12 kg/m3

## Cc1cccc([N+](=O)[O-])c1 [3-nitrotoluene] + CC(=O)N(C)C
[2]; x2 = 0.0851
  viscosity: 1.76 ± 0.021 mPa·s
  excess molar volume: 1.8e-08 ± 6e-09 m3/mol
[2]; x2 = 0.1552
  viscosity: 1.752 ± 0.021 mPa·s
  excess molar volume: 3e-08 ± 6e-09 m3/mol
[2]; x2 = 0.242
  viscosity: 1.71 ± 0.02 mPa·s
  excess molar volume: 4.2e-08 ± 6e-09 m3/mol
[2]; x2 = 0.2931
  viscosity: 1.686 ± 0.02 mPa·s
  excess molar volume: 4.9e-08 ± 6e-09 m3/mol
[2]; x2 = 0.3451
  viscosity: 1.646 ± 0.02 mPa·s
  excess molar volume: 5.4e-08 ± 6e-09 m3/mol
[2]; x2 = 0.4062
  viscosity: 1.603 ± 0.019 mPa·s
  excess molar volume: 5.9e-08 ± 6e-09 m3/mol
[2]; x2 = 0.455
  viscosity: 1.568 ± 0.019 mPa·s
  excess molar volume: 6.2e-08 ± 6e-09 m3/mol
[2]; x2 = 0.5191
  viscosity: 1.519 ± 0.018 mPa·s
  excess molar volume: 6.5e-08 ± 6e-09 m3/mol
[2]; x2 = 0.5532
  viscosity: 1.492 ± 0.018 mPa·s
  excess molar volume: 6.6e-08 ± 6e-09 m3/mol
[2]; x2 = 0.603
  viscosity: 1.451 ± 0.018 mPa·s
  excess molar volume: 6.6e-08 ± 6e-09 m3/mol
[2]; x2 = 0.6512
  viscosity: 1.408 ± 0.017 mPa·s
  excess molar volume: 6.5e-08 ± 6e-09 m3/mol
[2]; x2 = 0.7125
  viscosity: 1.348 ± 0.017 mPa·s
  excess molar volume: 6.3e-08 ± 6e-09 m3/mol
[2]; x2 = 0.7561
  viscosity: 1.3 ± 0.016 mPa·s
  excess molar volume: 5.9e-08 ± 6e-09 m3/mol
[2]; x2 = 0.8151
  viscosity: 1.224 ± 0.016 mPa·s
  excess molar volume: 5.1e-08 ± 6e-09 m3/mol
[2]; x2 = 0.9727
  viscosity: 0.935 ± 0.013 mPa·s
  excess molar volume: 1.2e-08 ± 6e-09 m3/mol
[2]; x2 = 0.0678
  speed of sound: 2077 ± 3 m/s
  mass density: 1133.63 ± 11 kg/m3
[2]; x2 = 0.1256
  speed of sound: 2039 ± 3 m/s
  mass density: 1121.68 ± 11 kg/m3
[2]; x2 = 0.1998
  speed of sound: 1958 ± 3 m/s
  mass density: 1106.36 ± 11 kg/m3
[2]; x2 = 0.2449
  speed of sound: 1906 ± 3 m/s
  mass density: 1097.04 ± 11 kg/m3
[2]; x2 = 0.291
  speed of sound: 1857 ± 3 m/s
  mass density: 1087.34 ± 11 kg/m3
[2]; x2 = 0.3485
  speed of sound: 1802 ± 3 m/s
  mass density: 1075.63 ± 11 kg/m3
[2]; x2 = 0.395
  speed of sound: 1763 ± 3 m/s
  mass density: 1066.03 ± 11 kg/m3
[2]; x2 = 0.4577
  speed of sound: 1729 ± 3 m/s
  mass density: 1053.07 ± 11 kg/m3
[2]; x2 = 0.4919
  speed of sound: 1699 ± 3 m/s
  mass density: 1046.01 ± 10 kg/m3
[2]; x2 = 0.5429
  speed of sound: 1676 ± 3 m/s
  mass density: 1035.49 ± 10 kg/m3
[2]; x2 = 0.5935
  speed of sound: 1656 ± 3 m/s
  mass density: 1025.05 ± 10 kg/m3
[2]; x2 = 0.6596
  speed of sound: 1632 ± 3 m/s
  mass density: 1011.39 ± 10 kg/m3
[2]; x2 = 0.708
  speed of sound: 1616 ± 3 m/s
  mass density: 1001.42 ± 10 kg/m3
[2]; x2 = 0.7751
  speed of sound: 1589 ± 3 m/s
  mass density: 987.57 ± 9.9 kg/m3
[2]; x2 = 0.9654
  speed of sound: 1473 ± 3 m/s
  mass density: 948.44 ± 9.5 kg/m3

## Cc1ccc(Cl)cc1 [4-chlorotoluene]
[1]; 298.15 K
  mass density: 1065.14 ± 11 kg/m3
[1]; 303.15 K
  viscosity: 0.902 ± 0.012 mPa·s

## Cc1ccc(Cl)cc1 [4-chlorotoluene] + CC(=O)N(C)C
[2]; x2 = 0.0876
  viscosity: 0.897 ± 0.013 mPa·s
  excess molar volume: -6e-09 ± 6e-09 m3/mol
[2]; x2 = 0.1205
  viscosity: 0.895 ± 0.013 mPa·s
  excess molar volume: -1e-08 ± 6e-09 m3/mol
[2]; x2 = 0.1564
  viscosity: 0.893 ± 0.013 mPa·s
  excess molar volume: -1.2e-08 ± 6e-09 m3/mol
[2]; x2 = 0.2145
  viscosity: 0.89 ± 0.013 mPa·s
  excess molar volume: -1.6e-08 ± 6e-09 m3/mol
[2]; x2 = 0.2534
  viscosity: 0.888 ± 0.013 mPa·s
  excess molar volume: -1.9e-08 ± 6e-09 m3/mol
[2]; x2 = 0.3011
  viscosity: 0.886 ± 0.013 mPa·s
  excess molar volume: -2.2e-08 ± 6e-09 m3/mol
[2]; x2 = 0.374
  viscosity: 0.884 ± 0.013 mPa·s
  excess molar volume: -2.6e-08 ± 6e-09 m3/mol
[2]; x2 = 0.495
  viscosity: 0.882 ± 0.013 mPa·s
  excess molar volume: -2.9e-08 ± 6e-09 m3/mol
[2]; x2 = 0.5275
  viscosity: 0.88 ± 0.013 mPa·s
  excess molar volume: -2.9e-08 ± 6e-09 m3/mol
[2]; x2 = 0.5543
  viscosity: 0.879 ± 0.013 mPa·s
  excess molar volume: -2.8e-08 ± 6e-09 m3/mol
[2]; x2 = 0.6041
  viscosity: 0.878 ± 0.013 mPa·s
  excess molar volume: -2.7e-08 ± 6e-09 m3/mol
[2]; x2 = 0.7047
  viscosity: 0.876 ± 0.013 mPa·s
  excess molar volume: -2.2e-08 ± 6e-09 m3/mol
[2]; x2 = 0.762
  viscosity: 0.874 ± 0.013 mPa·s
  excess molar volume: -1.8e-08 ± 6e-09 m3/mol
[2]; x2 = 0.8241
  viscosity: 0.872 ± 0.013 mPa·s
  excess molar volume: -1.4e-08 ± 6e-09 m3/mol
[2]; x2 = 0.8806
  viscosity: 0.87 ± 0.013 mPa·s
  excess molar volume: -1e-08 ± 6e-09 m3/mol
[2]; x2 = 0.0699
  speed of sound: 1286 ± 3 m/s
  mass density: 1056.58 ± 11 kg/m3
[2]; x2 = 0.0969
  speed of sound: 1294 ± 3 m/s
  mass density: 1053.3 ± 11 kg/m3
[2]; x2 = 0.1267
  speed of sound: 1303 ± 3 m/s
  mass density: 1049.63 ± 11 kg/m3
[2]; x2 = 0.1767
  speed of sound: 1317 ± 3 m/s
  mass density: 1043.58 ± 10 kg/m3
[2]; x2 = 0.2099
  speed of sound: 1326 ± 3 m/s
  mass density: 1039.44 ± 10 kg/m3
[2]; x2 = 0.2522
  speed of sound: 1339 ± 3 m/s
  mass density: 1034.25 ± 10 kg/m3
[2]; x2 = 0.3187
  speed of sound: 1359 ± 3 m/s
  mass density: 1026.08 ± 10 kg/m3
[2]; x2 = 0.4342
  speed of sound: 1385 ± 3 m/s
  mass density: 1011.83 ± 10 kg/m3
[2]; x2 = 0.4664
  speed of sound: 1392 ± 3 m/s
  mass density: 1007.85 ± 10 kg/m3
[2]; x2 = 0.4933
  speed of sound: 1397 ± 3 m/s
  mass density: 1004.51 ± 10 kg/m3
[2]; x2 = 0.5443
  speed of sound: 1403 ± 3 m/s
  mass density: 998.18 ± 10 kg/m3
[2]; x2 = 0.6513
  speed of sound: 1415 ± 3 m/s
  mass density: 984.88 ± 9.9 kg/m3
[2]; x2 = 0.7148
  speed of sound: 1420 ± 3 m/s
  mass density: 976.97 ± 9.8 kg/m3
[2]; x2 = 0.7858
  speed of sound: 1424 ± 3 m/s
  mass density: 968.12 ± 9.7 kg/m3
[2]; x2 = 0.8524
  speed of sound: 1425 ± 3 m/s
  mass density: 959.81 ± 9.6 kg/m3

## CC(=O)N(C)C [N,N-dimethylethanamide]
[1]; 303.15 K
  viscosity: 0.865 ± 0.012 mPa·s
  mass density: 941.35 ± 9.4 kg/m3
